The values that follow come from ChEMBL document CHEMBL5223061, “Mechanisms and inhibitors of nicotinamide N-methyltransferase” (RSC Med Chem, 2021).

In general, inhibition refers to the drop in the measured response relative to a control, in per cent. Broadly, the IC50 is the concentration needed to halve the response being measured. As a reminder, the Km is the substrate concentration at which the rate is half of its maximum.

Data set [1] has as its target T1, Nicotinamide N-methyltransferase (Homo sapiens) (UniProt P40261).
T1 sequence (whole entry): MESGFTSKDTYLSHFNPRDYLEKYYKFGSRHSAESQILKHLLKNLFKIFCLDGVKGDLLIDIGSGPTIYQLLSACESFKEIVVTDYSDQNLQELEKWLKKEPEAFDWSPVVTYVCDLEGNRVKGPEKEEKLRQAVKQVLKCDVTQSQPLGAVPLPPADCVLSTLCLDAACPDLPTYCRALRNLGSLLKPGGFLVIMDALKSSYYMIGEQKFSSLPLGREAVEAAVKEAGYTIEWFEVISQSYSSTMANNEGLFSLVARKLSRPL
Put plainly: Inhibition of NNMT (unknown origin) assessed as formation of MNA at 0.5 uM using nicotinamide as substrate and SAM as cofactor by fluorescence based assay.

Data set [2] has as its target T1, Nicotinamide N-methyltransferase (Homo sapiens). In words: Inhibition of recombinant human NNMT expressed in Escherichia coli BL21 (DE3) assessed as Kobs/[I] ratio and measured after 20 mins using nicotinamide as substrate and SAM as cofactor by MTase-Glo reagent based assay.
Data set [3] in a line: Inhibition of monkey NNMT preincubated for 30 mins followed by substrate, cofactor addition and measured after 60 mins using nicotinamide as substrate and SAM as cofactor by fluorescence enzymatic assay. Details: species or system Macaca mulatta.
Data set [4] addresses T1, Nicotinamide N-methyltransferase (Homo sapiens). Put plainly: Inhibition of human NNMT at 30 uM preincubated for 30 mins followed by substrate, cofactor addition and measured after 60 mins using nicotinamide as substrate and SAM as cofactor by fluorescence enzymatic assay. The note with it: time 90.0 min.
Substrate in data set [5]: C[S+](CC[C@H](N)C(=O)[O-])C[C@H]1O[C@@H](n2cnc3c(N)ncnc32)[C@H](O)[C@@H]1O
Put plainly: Binding affinity to recombinant human NNMT expressed in Escherichia coli BL21 (DE3) assessed as Km preincubated for 10 mins followed by SAM addition and measured after 10 mins by Michaelis-Menten analysis. The conditions noted are these: time 20.0 min.

Substrate in data set [6]: NC(=O)c1cccnc1
In words: Binding affinity to recombinant human NNMT expressed in Escherichia coli BL21 (DE3) assessed as Km preincubated for 10 mins followed by NAM addition and measured after 10 mins by Michaelis-Menten analysis. The conditions noted are these: time 20.0 min.

Regarding `C=C(C)[C@@]12O[C@@]3(/C=C/C=C/CCCCC)O[C@@H]1[C@@H]1[C@@H]4O[C@]4(CO)[C@@H](O)[C@]4(O)C(=O)C(C)=C[C@H]4[C@@]1(O3)[C@H](C)[C@H]2OC(C)=O`, the inhibition in data set [1] was 50%. In the case of `Clc1ccncc1`, the Ratio in data set [2] turned out to be 20 M⁻¹ min⁻¹.

As to `NC(=O)c1cnccc1Cl`, the Ratio in data set [2] came out at 80 M⁻¹ min⁻¹. The molecule `COc1ccc(C(N)=O)cn1` returned an IC50 in data set [3] of 2800 nM. In data set [4], `CNC(=O)c1ccc(OC)nc1` gave an inhibition of 20%.

B1: Nicotinamide N-methyltransferase (Homo sapiens), P40261 (protein)
chain: MESGFTSKDTYLSHFNPRDYLEKYYKFGSRHSAESQILKHLLKNLFKIFCLDGVKGDLLIDIGSGPTIYQLLSACESFKEIVVTDYSDQNLQELEKWLKKEPEAFDWSPVVTYVCDLEGNRVKGPEKEEKLRQAVKQVLKCDVTQSQPLGAVPLPPADCVLSTLCLDAACPDLPTYCRALRNLGSLLKPGGFLVIMDALKSSYYMIGEQKFSSLPLGREAVEAAVKEAGYTIEWFEVISQSYSSTMANNEGLFSLVARKLSRPL
Regarding B1, the Km was 8.5 µM in data set [5] and 199 µM in data set [6].
